# Values of other authors as cited in patent US20150174190A1, “Formulation Against General, Physical, And/Or Mental Fatigue” (priority 2013, published 2015).
# Tested on: patients that suffered from fatigue
structure (smiles),measurement,value
CC(C)[C@H](N)C(=O)OCC(CO)OCn1cnc2c(=O)nc(N)[nH]c21 (stereo partly shown) [Valganciclovir],Effect on physical and cognitive performance,improved physical and cognitive performance
